# Measurements: patent US6545043B1 (priority 1997, dated 2003)
# “And” between values parts separate entries of the source, which are not always exact repeats. Equal entries are not always repeated. “Also recorded” adds a separate entry of the source. Where two headings read alike, the source gives them in different places.
# Assays:
# [1] = tested on: adult house fly (Musca domestica); conditions: in vivo
# [2] = tested on: lesser grain borer (Rhizopertha dominica); conditions: in vivo
# [3] = tested on: brine shrimp (Artemia franciscana); experiment: whole plant or invertebrate
# [4] = tested on: yellow fever mosquito (Aedes aegypti) larvae; experiment: whole plant or invertebrate; conditions: 24 h, read-out: % mortality at 1 ppm
# [5] = tested on: brine shrimp (Artemia franciscana); conditions: in vivo
# [6] = tested on: adult house fly (Musca domestica); experiment: whole plant or invertebrate; conditions: topical, 24 h, read-out: Percentage mortality at 24 h
# [7] = in vivo; cited from earlier work
# [8] = tested on: soybean cyst nematode (SCN) (Heterodera glycines) eggs; conditions: in vivo
# [9] = tested on: adult house fly (Musca domestica); conditions: in vivo; remark: listed apart in the source
# [10] = tested on: root-knot nematode (RKN) (Meloidogyne incognita) eggs; conditions: in vivo
# [11] = tested on: root-knot nematode (RKN) (Meloidogyne incognita) eggs; conditions: in vivo; remark: listed apart in the source
# weed seeds in soil = conditions: in vivo
# [12] = tested on: Saw-toothed grain weevil, Oryzaephilus surinamensis; conditions: in vivo; cited from earlier work
# [13] = tested on: Drugstore beetle, Stegobium paniceum; conditions: in vivo; cited from earlier work
# [14] = tested on: Granary weevil, Sitophilus granarius; conditions: in vivo; cited from earlier work
# [15] = tested on: Bean weevil, Acanthoscelides obtectus; conditions: in vivo; cited from earlier work
# [16] = tested on: Confused flour beetle, Tribolium confusum; conditions: in vivo; cited from earlier work
# [17] = tested on: five stored products pests (granary weevil, drugstore beetle, confused flour beetle, bean weevil, saw-toothed grain beetle); conditions: in vivo; cited from earlier work
# [18] = tested on: house fly larvae (M. domestica); conditions: in vivo; cited from earlier work
# [19] = 24 h, read-out: % Mortality at 1 ppm
molecule,measurement,setting,value
N#CC1(O)C=CCCC1 (centres unmarked) [2-cyclohexen-1-one cyanohydrin],LC50,[1],>20 µg/mL
same,LC50,[2],>20 µg/mL
CC=C(C)C(O)C#N (centres unmarked) [2-methyl-2-butenal cyanohydrin],LC50,[1],>20 µg/mL
same,LC50,[2],>20 µg/mL
CCC(C)C(O)C#N (centres unmarked) [2-methylbutyraldehyde cyanohydrin],LC50,[1],>20 µg/mL
same,LC50,[2],>20 µg/mL
CCCC(C)C(O)C#N (centres unmarked) [2-methylvaleraldehyde cyanohydrin],LC50,[1],>20 µg/mL
same,LC50,[2],>20 µg/mL
N#CC(O)c1ccccc1[N+](=O)[O-] (centres unmarked) [2-nitromandelonitrile cyanohydrin],LC50,[1],>20 µg/mL
same,LC50,[2],>20 µg/mL
CC(C)C(C)(O)C#N (centres unmarked) [3-methylbutanone cyanohydrin],LC50,[1],>20 µg/mL
same,LC50,[2],>20 µg/mL
"C=CCC#N [AC, allyl cyanide]",LC50,[1],3.66 µg/mL
same,mortality at 1 ppm,[3]; [19],7%
same,mortality at 1 ppm,[4],3%
same,LC50,[2],2.8 µg/mL
same,effectiveness as aquatic pesticide,[5],very weak
same,mortality at 97 µg/fly,[6],15%
"C=CCN=C=S [AITC, allyl isothiocyanate]",LC50,[1],0.13 µg/mL
same,mortality at 1 ppm,[3]; [19],97%
same,mortality at 1 ppm,[4],83%
same,LC50,[2],1.57 µg/mL
same,mortality at 99 µg/fly,[6],45%
"C=CCSC#N [ATC, allyl thiocyanate]",mortality at 1 ppm,[3]; [19],47%
same,mortality at 1 ppm,[4],57%
same,effectiveness as aquatic pesticide,[5],very weak
same,mortality at 101 µg/fly,[6],35%
CNC(=O)O/N=C/C(C)(C)SC [Aldicarb],mammalian LD50,[7],1 mg/kg
"C=CC(O)CC#N (centres unmarked) [CHB, 1-cyano-2-hydroxy-3-butene]",LC50,[1],6.2 µg/mL
same,mortality at 1 ppm,[3]; [19],13%
same,mortality at 1 ppm,[4],17%
same,times less effective than dichlorvos,[2],about 68 times
same,effectiveness as aquatic pesticide,[5],very weak
same,mortality at 10.7 µg/fly,[6],0%
same,mortality at 107 µg/fly,[6],55%
same,[…] HATCH,[8],−70% and −73%
C=CC(C#N)OC(=O)/C=C/c1ccccc1 (centres unmarked) [CHP cinnamate],mortality at 1 ppm,[3],95%
same,mortality at 10 ppm,[3],100%
same,mortality at 100 ppm,[3],100%
same,effectiveness as aquatic pesticide,[5],moderately toxic
same,mortality at 1 µg/fly,[6],0%
same,mortality at 10 µg/fly,[6],~50%
same,mortality at 100 µg/fly,[6],87%
C=CC(C#N)OC(=O)CCCCCCCCC (centres unmarked) [CHP decanoate],mortality at 1 ppm,[3],15%
same,mortality at 10 ppm,[3],95%
same,mortality at 100 ppm,[3],100%
same,mortality at 1 µg/fly,[6],0%
same,mortality at 10 µg/fly,[6],~50%
same,mortality at 100 µg/fly,[6],100%
"C=CC(O)C#N (centres unmarked) [CHP, 3-cyano-3-hydroxy-1-propene]",LC50,[1],0.15 µg/mL
same,effectiveness as topical pesticide,[9],relatively weak
same,"percent hatch, highest in the 22-day period",[10],≤ 19%
same,LC50,[2],0.37 µg/mL
same,mortality at 9.8 µg/fly,[6],5%
same,mortality at 98 µg/fly,[6],100%
same,"percent hatch, highest in the 22-day observation period",[11],≤ 34.4%
"C=CC(C#N)OC(C)=O (centres unmarked) [CHP-Ace, CHP acetate]",LC50,[1],0.26 µg/mL
same,times less effective than dichlorvos,[1],about 20 times
same,Severity (bacteria and fungal colonies formed),soil bacteria,completely inhibited growth; also recorded: No bacteria or fungal colonies
same,effect on post-emergent weeds (observation),weed seeds in soil,kill post-emergent weeds
same,"percent hatch, highest in the 22-day period",[10],≤ 42.6%
same,LC50,[2],0.37 µg/mL
same,mortality at 10 µg/fly,[6],0%
same,mortality at […],[6],100%
same,Percent hatch,[11],0.0% and 5.4% and 5.6% and 0.8% and 1.5% and 4.9% and 5.2% and 5.3%
same,"percent hatch, highest in the 22-day observation period",[11],≤ 5.6%
"C=CC(C#N)OC(=O)C(C)(C)C (centres unmarked) [CHP-Piv, CHP pivalate]",LC50,[1],1.37 µg/mL
same,LC50,[2],2.4 µg/mL
same,mortality at 9.9 µg/fly,[6],0%
same,mortality at 99 µg/fly,[6],80%
"C=CC(C#N)OC(=O)CC (centres unmarked) [CHP-Pro, CHP propionate]",LC50,[1],0.66 µg/mL
same,times less effective than dichlorvos,[1],about 60 times
same,LC50,[2],0.70 µg/mL
same,times less effective than dichlorvos,[2],about 2.5 times
same,mortality at 9.7 µg/fly,[6],0%
same,mortality at 97 µg/fly,[6],100%
"CC(C)(O)C#N [DMK-CNOH, dimethyl ketone cyanohydrin]",LC50,[1],<0.07 µg/mL
same,LC50,[2],0.25 µg/mL
"C=CC1CNC(=S)O1 (centres unmarked) [Goitrin, goitrin]",mortality at 1 µg/fly,[6],5%
same,mortality at 100 µg/fly,[6],5%
C=CC#N [acrylonitrile],LC50 for 6 h,[12],0.8 µg/mL
same,LC50 for 6 h,[13],1.7 µg/mL
same,LC50 for 6 h,[14],2.0 µg/mL
same,LC50 for 6 h,[15],1.1 µg/mL
same,LC50 for 6 h,[16],3.0 µg/mL
S=C=S [carbon disulfide],LC50 for 6 h,[12],40.0 µg/mL
same,LC50 for 6 h,[13],42.0 µg/mL
same,LC50 for 6 h,[14],43.0 µg/mL
same,LC50 for 6 h,[15],29.0 µg/mL
same,LC50 for 6 h,[16],75.0 µg/mL
"O=C(O)C=Cc1ccccc1 [cinnamic acid, reference compound]",mortality at 1 ppm,[3],30%
same,mortality at 10 ppm,[3],45%
same,mortality at 100 ppm,[3],100%
same,effectiveness as topical pesticide,[9],not an effective biopesticide
same,mortality at 1 µg/fly,[6],0%
same,mortality at 10 µg/fly,[6],0%
same,mortality at 100 µg/fly,[6],0%
N#CC(O)/C=C/c1ccccc1 (centres unmarked) [cinnamyl cyanohydrin],mortality at 1 ppm,[3],25%
same,mortality at 10 ppm,[3],15%
same,mortality at 100 ppm,[3],100%
same,effectiveness as topical pesticide,[9],relatively weak
same,mortality at 6 µg/fly,[6],9%
same,mortality at 50 µg/fly,[6],100%
"CC(C)=CCCC(C)CC(=O)O (centres unmarked) [citronellic acid, reference compound]",mortality at 1 ppm,[3],40%
same,mortality at 10 ppm,[3],65%
same,mortality at 100 ppm,[3],100%
same,mortality at 1 µg/fly,[6],0%
same,mortality at 10 µg/fly,[6],91%
same,mortality at 100 µg/fly,[6],100%
CC(C)=CCCC(C)CC(O)C#N (centres unmarked) [citronellyl cyanohydrin],effectiveness as topical pesticide,[9],not active
same,mortality at 6 µg/fly,[6],14%
same,mortality at 50 µg/fly,[6],10%
CC(C)=CCC/C(C)=C/C(O)C#N (centres unmarked) [citryl cyanohydrin],mortality at 1 ppm,[3],0%
same,mortality at 10 ppm,[3],0%
same,mortality at 100 ppm,[3],87%
same,Percentage mortality at 24 h,[9],9%
same,effectiveness as topical pesticide,[9],not active
same,mortality at 1 µg/fly,[6],8%
"COP(=O)(OC)OC=C(Cl)Cl [dichlorvos, reference compound]",LC50,[2],0.29 µg/mL
same,mortality at 1 µg/fly,[6],95%
C1CO1 [ethylene oxide],LC50 for 6 h,[12],4.0 µg/mL
same,LC50 for 6 h,[13],9.0 µg/mL
same,LC50 for 6 h,[14],13.5 µg/mL
same,LC50 for 6 h,[15],10.5 µg/mL
same,LC50 for 6 h,[16],27.5 µg/mL
N#CC(O)c1ccccc1 (centres unmarked) [mandelonitrile],"percent hatch, highest in the 22-day period",[10],≤ 29.7%
CBr [methyl bromide],LC50 for 6 h,[12],4.4 µg/mL
same,Severity of depression of microbial activity,soil microbial activity,Slightly Depressed; also recorded: severe depression; also recorded: Severely Depressed
same,LC50 for 6 h,[13],4.4 µg/mL
same,LC50 for 6 h,[14],4.8 µg/mL
same,LC50 for 6 h,[15],4.2 µg/mL
same,LC50 for 6 h,[16],9.2 µg/mL
same,"LC50 values, range over five stored products pests",[17],4.2 to 9.2 µg/mL
CC1(C)C(C=C(Cl)Cl)C1C(=O)OCc1cccc(Oc2ccccc2)c1 (centres unmarked) [permethrin],mortality,[18],roughly 98%
"C=C(C)[C@H]1Cc2c(ccc3c2O[C@@H]2COc4cc(OC)c(OC)cc4[C@@H]2C3=O)O1 [rotenone, reference compound]",mortality at 1 ppm,[3],100%
methyl ethyl ketone cyanohydrin [MEK-CNOH],LC50,[1],0.09 µg/mL
same,LC50,[2],0.27 µg/mL
